Earlier results as cited in patent US20060247361A1, “Polar functionalized polymer modified porous substrate for solid phase extraction” (priority 2005, published 2006).
Structures can show the parent of a compound that is named as a salt.

Row | Log P | SMILES
1 | 3.85 | CN1CCN2c3ccccc3Cc3ccccc3C2C1 (stereo not shown) [Mianserin]
2 | 3.75 | NCCC(Oc1ccc(C(F)(F)F)cc1)c1ccccc1 (stereo not shown) [Norfluoxetine]

Second part, the molecule before the results:

Row | SMILES | Log P
3 | CN(C)CCC(c1ccc(Br)cc1)c1ccccn1 (stereo not shown) [Brompheniramine] | 3.89
4 | CN(C)CCC(c1ccc(Cl)cc1)c1ccccn1 (stereo not shown) [Chlorpheniramine maleate] | 3.38
5 | CNCCC=C1c2ccccc2CCc2ccccc21 [Nortriptyline] | 4.74
6 | CC(C)(C)NCC(O)c1ccc(O)c(CO)c1 (stereo not shown) [Salbutamol] | 0.97
7 | CC(C)(C)NC[C@H](O)COc1nsnc1N1CCOCC1 [Timolol maleate] | 1.83
